Test results as given in patent US11154563B2, “Immunoproteasome inhibitors” (Principia Biopharma Inc., priority 2017, dated 2021).
Blank lines part the entries; values can stand above or below the compound they belong to.

Assays:
[1] = biological target: immunoproteasome LMP7/B5i subunit (Homo sapiens, UniProt P20618+P28062); assay: Caliper-based proteasome enzymatic activity assay, LMP7; format: biochemical; settings: human recombinant immunoproteasome 0.3 nM, FAM-peptide substrate 1 μM, 3 h at rt
Description: (§1) A Caliper-based proteasome assay (Caliper Life Sciences, Hopkinton, Mass.) was used to measure inhibition of the immunoproteasome LMP7/B5i subunit, the immunoproteasome LPM2/β1i subunit, and the constitutive proteasome β5c unit for a compound of Formula (I). For LMP7 and β5c, serial dilutions of test compounds were incubated with either human recombinant immunoprotcasome or constitutive proteasome (0.3 nM enzyme) and a carboxyfluorescein (FAM)-labeled peptide substrate FAM-TYETFKSIMKKSPF-NH2 (1 μM) at it for 3 h. The reaction was then terminated with a buffer containing the known proteasome inhibitor carfilzomib at a concentration of 5 uM. For LMP2, serial dilutions of test compounds were incubated with human recombinant immunoproteasome proteasome (0.3 nM enzyme) and a carboxyfluorescein (FAM)-labeled peptide substrate FAM-[…]-NH2 (1 μM) at rt for 2 h. The reaction was then terminated with a buffer containing the known proteasome inhibitor ixazomib at a concentration of 6.7 uM. The reaction buffer was 20 mM Hepes pH 7.4, 0.01% bovine serum albumin, 0.015% SDS, 0.5 mM EDTA, 1%0/DMSO. The peptide cleavage reaction product was quantified on a Caliper LabChip 3000. Percent inhibition was calculated for each compound dilution and the concentration that produced 50% inhibition was calculated. This value is presented as the IC50.

[2] = biological target: constitutive proteasome β5c unit (Homo sapiens, UniProt P20618+P28074); assay: Caliper-based proteasome enzymatic activity assay, β5c; format: biochemical; settings: human recombinant constitutive proteasome 0.3 nM, FAM-peptide substrate 1 μM, 3 h at rt; read-out: β5c subunit IC50
Description: as §1

Compound: CC(C)(C=C(C#N)C(=O)N1CCC[C@@H]1COC(=O)N[C@@H](Cc1coc2ccccc12)B(O)O)N1CCC(F)(F)C1 [Example 42, ((R)-2-(benzofuran-3-yl)-1-(((((R)-1-(2-cyano-4-(3,3-difluoropyrrolidin-1-yl)-4-methylpent-2-enoyl)pyrrolidin-2-yl)methoxy)carbonyl)amino)ethyl)boronic acid]
- IC50 [1]: 0.5 nM
- IC50 [2]: 141 nM

Compound: CC(C)(C)C=C(C#N)C(=O)N1CCOC[C@@H]1COC(=O)N[C@@H](Cc1coc2ccccc12)B(O)O [Example 43, ((R)-2-(benzofuran-3-yl)-1-(((((R)-4-(2-cyano-4,4-dimethylpent-2-enoyl)morpholin-3-yl)methoxy)carbonyl)amino)ethyl)boronic acid]
- IC50 [1]: 2 nM
- IC50 [2]: 34 nM

Compound: CC(C)(C=C(C#N)C(=O)N1CCC[C@@H]1COC(=O)N[C@@H](Cc1coc2ccccc12)B(O)O)N1CCN(C2COC2)CC1 [Example 44, ((R)-2-(benzofuran-3-yl)-1-(((((R)-1-(2-cyano-4-methyl-4-(4-(oxetan-3-yl)piperazin-1-yl)pent-2-enoyl)pyrrolidin-2-yl)methoxy)carbonyl)amino)ethyl)boronic acid]
- IC50 [1]: 2.3 nM
- IC50 [2]: 396 nM

Compound: Cc1ccc(C[C@H](NC(=O)OC[C@H]2CCCCN2C(=O)C(C#N)=CC(C)(C)N2CCOCC2)B(O)O)cc1 [Example 45, ((R)-1-(((((R)-1-(2-cyano-4-methyl-4-morpholinopent-2-enoyl)piperidin-2-yl)methoxy)carbonyl)amino)-2-(p-tolyl)ethyl)boronic acid]
- IC50 [1]: 4 nM
- IC50 [2]: 854 nM

Compound: CC(C)(C=C(C#N)C(=O)N1CCCC[C@@H]1COC(=O)N[C@@H](Cc1coc2ccccc12)B(O)O)N1CCOCC1 [Example 46, ((R)-2-(benzofuran-3-yl)-1-(((((R)-1-(2-cyano-4-methyl-4-morpholinopent-2-enoyl)piperidin-2-yl)methoxy)carbonyl)amino)ethyl)boronic acid]
- IC50 [1]: 1 nM
- IC50 [2]: 187 nM

Compound: CC(C)(C=C(C#N)C(=O)N1CCCC[C@@H]1COC(=O)N[C@@H](Cc1coc2ccccc12)B(O)O)N1CCC(F)(F)C1 [Example 47]
- IC50 [1]: 1.1 nM
- IC50 [2]: 128 nM

Compound: CC(C)(C)C=C(C#N)C(=O)N1C[C@@H]2C[C@@H]2[C@@H]1COC(=O)N[C@@H](Cc1coc2ccccc12)B(O)O [Example 48, ((R)-2-(benzofuran-3-yl)-1-(((((1S,2R,5R)-3-(2-cyano-4,4-dimethylpent-2-enoyl)-3-azabicyclo[3.1.0]hexan-2-yl)methoxy)carbonyl)amino)ethyl)boronic acid]
- IC50 [1]: 0.6 nM
- IC50 [2]: 115 nM

Compound: CN(C)C/C=C/C(=O)N1CCC[C@@H]1COC(=O)N[C@@H](Cc1coc2ccccc12)B(O)O [Example 49, ((R)-2-(benzofuran-3-yl)-1-(((((R)-1-((E)-4-(dimethylamino)but-2-enoyl)pyrrolidin-2-yl)methoxy)carbonyl)amino)ethyl)boronic acid]
- IC50 [1]: 1.3 nM
- IC50 [2]: 149 nM

Compound: CC(C)(C)C=C(C#N)C(=O)N1CCCC[C@@H]1COC(=O)N[C@@H](CCc1ccccc1)B(O)O [Example 50, ((R)-1-(((((R)-1-(2-cyano-4,4-dimethylpent-2-enoyl)piperidin-2-yl)methoxy)carbonyl)amino)-3-phenylpropyl)boronic acid]
- IC50 [1]: 9.8 nM
- IC50 [2]: > 5000 nM

Compound: CC(C)(C=C(C#N)C(=O)N1C[C@@H]2C[C@@H]2[C@@H]1COC(=O)N[C@@H](Cc1coc2ccccc12)B(O)O)N1CCOCC1 [Example 51, ((R)-2-(benzofuran-3-yl)-1-(((((1S,2R,5R)-3-(2-cyano-4-methyl-4-morpholinopent-2-enoyl)-3-azabicyclo[3.1.0]hexan-2-yl)methoxy)carbonyl)amino)ethyl)boronic acid]
- IC50 [1]: 0.5 nM
- IC50 [2]: 356 nM

Compound: C=CC(=O)N1C[C@@H]2C[C@@H]2[C@@H]1COC(=O)N[C@@H](Cc1coc2ccccc12)B(O)O [Example 52, ((R)-1-(((((1S,2R,5R)-3-acryloyl-3-azabicyclo[3.1.0]hexan-2-yl)methoxy)carbonyl)amino)-2-(benzofuran-3-yl)ethyl)boronic acid]
- IC50 [1]: 1.3 nM
- IC50 [2]: 336 nM

Compound: CC(=O)N1CCN(C(C)(C)C=C(C#N)C(=O)N2CCC[C@@H]2COC(=O)N[C@@H](Cc2coc3ccccc23)B(O)O)CC1 [Example 53, ((R)-1-(((((R)-1-(4-(4-acetylpiperazin-1-yl)-2-cyano-4-methylpent-2-enoyl)pyrrolidin-2-yl)methoxy)carbonyl)amino)-2-(benzofuran-3-yl)ethyl)boronic acid]
- IC50 [1]: 1.8 nM
- IC50 [2]: 205 nM

The remaining lines, values ahead:

- IC50 [1]: 1.6 nM
- IC50 [2]: 192 nM
Compound: CC(C)(C=C(C#N)C(=O)N1C[C@@H]2C[C@@H]2[C@@H]1COC(=O)N[C@@H](Cc1coc2ccccc12)B(O)O)N1CCC(F)(F)C1 [Example 54, ((R)-2-(benzofuran-3-yl)-1-(((((1S,2R,5R)-3-(2-cyano-4-(3,3-difluoropyrrolidin-1-yl)-4-methylpent-2-enoyl)-3-azabicyclo[3.1.0]hexan-2-yl)methoxy)carbonyl)amino)ethyl)boronic acid]

- IC50 [1]: 2.5 nM
- IC50 [2]: 225 nM
Compound: CN1CCN(C(C)(C)C=C(C#N)C(=O)N2CCC[C@@H]2COC(=O)N[C@@H](Cc2coc3ccccc23)B(O)O)CC1 [Example 55, ((R)-2-(benzofuran-3-yl)-1-(((((R)-1-(2-cyano-4-methyl-4-(4-methylpiperazin-1-yl)pent-2-enoyl)pyrrolidin-2-yl)methoxy)carbonyl)amino)ethyl)boronic acid]

- IC50 [1]: 1.7 nM
- IC50 [2]: 148 nM
Compound: CC(C)(C=C(C#N)C(=O)N1CC(F)(F)C[C@@H]1COC(=O)N[C@@H](Cc1coc2ccccc12)B(O)O)N1CCOCC1 [Example 56, ((R)-2-(benzofuran-3-yl)-1-(((((R)-1-(2-cyano-4-methyl-4-morpholinopent-2-enoyl)-4,4-difluoropyrrolidin-2-yl)methoxy)carbonyl)amino)ethyl)boronic acid]

- IC50 [1]: 1.4 nM
- IC50 [2]: 176 nM
Compound: C[C@H]1CC[C@H](COC(=O)N[C@@H](Cc2coc3ccccc23)B(O)O)N1C(=O)C(C#N)=CC(C)(C)N1CCOCC1 [Example 57, ((R)-2-(benzofuran-3-yl)-1-(((((2R,5S)-1-(2-cyano-4-methyl-4-morpholinopent-2-enoyl)-5-methylpyrrolidin-2-yl)methoxy)carbonyl)amino)ethyl)boronic acid]

- IC50 [1]: 0.8 nM
- IC50 [2]: 23 nM
Compound: CC(C)(C=C(C#N)C(=O)N1CCOC[C@@H]1COC(=O)N[C@@H](Cc1coc2ccccc12)B(O)O)N1CCOCC1 [Example 58, ((R)-2-(benzofuran-3-yl)-1-(((((R)-4-(2-cyano-4-methyl-4-morpholinopent-2-enoyl)morpholin-3-yl)methoxy)carbonyl)amino)ethyl)boronic acid]

- IC50 [1]: 0.9 nM
- IC50 [2]: 232 nM
Compound: CC(C)(C=C(C#N)C(=O)N1CCCC[C@@H]1COC(=O)N[C@@H](Cc1coc2ccccc12)B(O)O)N1CCN(C2COC2)CC1 [Example 60, ((R)-2-(benzofuran-3-yl)-1-(((((R)-1-(2-cyano-4-methyl-4-(4-(oxetan-3-yl)piperazin-1-yl)pent-2-enoyl)piperidin-2-yl)methoxy)carbonyl)amino)ethyl)boronic acid]

- IC50 [1]: 1.4 nM
- IC50 [2]: 1490 nM
Compound: CC(C)(C)/C=C(\C#N)C(=O)N1CC(F)(F)C[C@@H]1COC(=O)N[C@@H](Cc1ccccc1)B(O)O [Example 61, ((R)-1-(((((R)-1-((E)-2-cyano-4,4-dimethylpent-2-enoyl)-4,4-difluoropyrrolidin-2-yl)methoxy)carbonyl)amino)-2-phenylethyl)boronic acid]

- IC50 [1]: 1.6 nM
- IC50 [2]: 205 nM
Compound: CC(C)(C=C(C#N)C(=O)N1CCCC[C@@H]1COC(=O)N[C@@H](Cc1coc2ccccc12)B(O)O)N1CCCC(F)(F)C1 [Example 62, ((R)-2-(benzofuran-3-yl)-1-(((((R)-1-(2-cyano-4-(3,3-difluoropiperidin-1-yl)-4-methylpent-2-enoyl)piperidin-2-yl)methoxy)carbonyl)amino)ethyl)boronic acid]

- IC50 [1]: 1.4 nM
- IC50 [2]: 230 nM
Compound: CC(C)(C=C(C#N)C(=O)N1CCCCC[C@@H]1COC(=O)N[C@@H](Cc1coc2ccccc12)B(O)O)N1CCOCC1 [Example 63, ((R)-2-(benzofuran-3-yl)-1-(((((R)-1-(2-cyano-4-methyl-4-morpholinopent-2-enoyl)-azepan-2-yl)methoxy)carbonyl)amino)ethyl)boronic acid]

- IC50 [1]: 3.3 nM
- IC50 [2]: 645 nM
Compound: CC(C)(C=C(C#N)C(=O)N1CCCCC[C@H]1COC(=O)N[C@@H](Cc1coc2ccccc12)B(O)O)N1CCOCC1 [Example 64, ((R)-2-(benzofuran-3-yl)-1-(((((S)-1-(2-cyano-4-methyl-4-morpholinopent-2-enoyl)azepan-2-yl)methoxy)carbonyl)amino)ethyl)boronic acid]

- IC50 [1]: 2.3 nM
- IC50 [2]: 60 nM
Compound: CC(C)(C=C(C#N)C(=O)N1CCOC[C@@H]1COC(=O)N[C@@H](Cc1coc2ccccc12)B(O)O)N1CCC(F)(F)C1 [Example 65, ((R)-2-(benzofuran-3-yl)-1-(((((R)-4-(2-cyano-4-(3,3-difluoropyrrolidin-1-yl)-4-methylpent-2-enoyl)morpholin-3-yl)methoxy)carbonyl)amino)ethyl)boronic acid]
